Experimental data published in ChEMBL document CHEMBL3044739, “Synthesis and cytotoxicity of novel N-sulfonyl-1,2,3,4-tetrahydroisoquinoline thiosemicarbazone derivatives” (Med Chem Res, 2013).
Converted amounts (≈) assume the structure as drawn.

Key:
Assay type in all cases: functional, cell-based
[1] = test system: HepG2; experiment: Cytotoxicity against Homo sapiens (human) HepG2 cells assessed as survival after 3 days by crystal violet staining; details: HepG2, 72 h
[2] = Cytotoxicity against Homo sapiens (human) HuCCa1 cells assessed as survival after 3 days by crystal violet staining; details: HuCC-A1, 72 h
[3] = test system: A549; experiment: Cytotoxicity against Homo sapiens (human) A549 cells assessed as survival after 3 days by crystal violet staining; details: A549, 72 h
[4] = test system: MOLT-3; experiment: Cytotoxicity against Homo sapiens (human) MOLT3 cells assessed as survival after 3 days by crystal violet staining; details: MOLT-3, 72 h

Q: With `NC(=S)N/N=C(/c1ccccc1)c1nccc2ccccc12` as the compound, how does the IC50 [1] read?
A: 16 µg/mL (≈ 52.2 µM)

Q: What about the IC50 [2] of the same compound?
A: 35 µg/mL (≈ 114 µM)

Q: What about the IC50 [3] of the same compound?
A: 30 µg/mL (≈ 97.9 µM)

Q: What about the IC50 [4] of the same compound?
A: 0.72 µg/mL (≈ 2.35 µM)

Q: Which IC50 [1] does the source give for `C/C(=N\NC(N)=S)C1c2ccccc2CCN1S(=O)(=O)c1cccc([N+](=O)[O-])c1` (centres undefined) here?
A: 38.5 µg/mL (≈ 88.8 µM)

Q: And the IC50 [2]?
A: > 50 µg/mL

Q: And the IC50 [3]?
A: > 50 µg/mL

Q: And the IC50 [4]?
A: 18.1 µg/mL (≈ 41.7 µM)

Q: What does the source list for `COc1ccc(S(=O)(=O)N2CCc3ccccc3C2/C(C)=N/NC(N)=S)cc1` (centres undefined)?
A: IC50 [1]: 33.5 µg/mL (≈ 80 µM); IC50 [2]: > 50 µg/mL; IC50 [3]: > 50 µg/mL; IC50 [4]: 15.6 µg/mL (≈ 37.2 µM)

Q: Which IC50 [1] does the source give for `C/C(=N\NC(N)=S)C1c2ccccc2CCN1S(=O)(=O)c1ccc([N+](=O)[O-])cc1` (centres undefined) here?
A: 32.3 µg/mL (≈ 74.6 µM)

Q: What about the IC50 [2] of the same compound?
A: > 50 µg/mL

Q: And the IC50 [3]?
A: > 50 µg/mL

Q: And the IC50 [4]?
A: 18.2 µg/mL (≈ 42.1 µM)

Q: Which results are given for `COc1ccc(S(=O)(=O)N2CCc3cc(OC)c(OC)cc3C2/C(C)=N/NC(N)=S)cc1` (centres undefined)?
A: IC50 [1]: 10.5 µg/mL (≈ 21.9 µM); IC50 [2]: 31 µg/mL (≈ 64.8 µM); IC50 [3]: > 50 µg/mL; IC50 [4]: 2.13 µg/mL (≈ 4.45 µM)

Q: For `C/C(=N\NC(N)=S)C1c2ccccc2CCN1S(=O)(=O)c1ccc(C)cc1` (centres undefined), which IC50 [1] is on record?
A: 46 µg/mL (≈ 114 µM)

Q: And the IC50 [2]?
A: > 50 µg/mL

Q: What about the IC50 [3] of the same compound?
A: > 50 µg/mL

Q: What about the IC50 [4] of the same compound?
A: 19 µg/mL (≈ 47.2 µM)

Q: What does the source list for `COc1cc2c(cc1OC)C(/C(C)=N/NC(N)=S)N(S(=O)(=O)c1ccc([N+](=O)[O-])cc1)CC2` (centres undefined)?
A: IC50 [1]: > 50 µg/mL; IC50 [2]: > 50 µg/mL; IC50 [3]: > 50 µg/mL; IC50 [4]: 42.3 µg/mL (≈ 85.7 µM)

Q: Which IC50 [1] does the source give for `COc1cc2c(cc1OC)C(/C(C)=N/NC(N)=S)N(S(=O)(=O)c1ccc(C)cc1)CC2` (centres undefined) here?
A: > 50 µg/mL

Q: And the IC50 [2]?
A: > 50 µg/mL

Q: And the IC50 [3]?
A: > 50 µg/mL

Q: And the IC50 [4]?
A: > 50 µg/mL

Q: Which IC50 [1] does the source give for `COc1ccc(S(=O)(=O)N2CCc3ccccc3C2/C(=N/NC(N)=S)c2ccccc2)cc1` (centres undefined) here?
A: > 50 µg/mL

Q: What about the IC50 [2] of the same compound?
A: > 50 µg/mL

Q: What about the IC50 [3] of the same compound?
A: > 50 µg/mL

Q: And the IC50 [4]?
A: 8.44 µg/mL (≈ 17.6 µM)

Q: Which results are given for `Cc1ccc(S(=O)(=O)N2CCc3ccccc3C2/C(=N/NC(N)=S)c2ccccc2)cc1` (centres undefined)?
A: IC50 [1]: > 50 µg/mL; IC50 [2]: > 50 µg/mL; IC50 [3]: > 50 µg/mL; IC50 [4]: 7.85 µg/mL (≈ 16.9 µM)

Q: Which IC50 [1] does the source give for `NC(=S)N/N=C(\c1ccccc1)C1c2ccccc2CCN1S(=O)(=O)c1ccc([N+](=O)[O-])cc1` (centres undefined) here?
A: > 50 µg/mL

Q: And the IC50 [2]?
A: > 50 µg/mL

Q: And the IC50 [3]?
A: > 50 µg/mL

Q: And the IC50 [4]?
A: 11.3 µg/mL (≈ 22.7 µM)

Q: What does the source list for `COc1cc2c(cc1OC)C(/C(=N/NC(N)=S)c1ccccc1)N(S(=O)(=O)c1ccc(Cl)cc1)CC2` (centres undefined)?
A: IC50 [1]: > 50 µg/mL; IC50 [2]: > 50 µg/mL; IC50 [3]: > 50 µg/mL; IC50 [4]: 5.03 µg/mL (≈ 9.23 µM)

Q: Which IC50 [1] does the source give for `COc1ccc(S(=O)(=O)N2CCc3cc(OC)c(OC)cc3C2/C(=N/NC(N)=S)c2ccccc2)cc1` (centres undefined) here?
A: > 50 µg/mL

Q: And the IC50 [2]?
A: > 50 µg/mL

Q: And the IC50 [3]?
A: > 50 µg/mL

Q: And the IC50 [4]?
A: 10.4 µg/mL (≈ 19.3 µM)

Q: Which IC50 [1] does the source give for `COc1cc2c(cc1OC)C(C(=O)c1ccccc1)N(S(=O)(=O)c1ccc(C)cc1)CC2` (centres undefined) here?
A: > 50 µg/mL

Q: And the IC50 [2]?
A: > 50 µg/mL

Q: What about the IC50 [3] of the same compound?
A: > 50 µg/mL

Q: What about the IC50 [4] of the same compound?
A: > 50 µg/mL

Q: Which results are given for `COc1cc2c(cc1OC)C(/C(=N/NC(N)=S)c1ccccc1)N(S(=O)(=O)c1ccc([N+](=O)[O-])cc1)CC2` (centres undefined)?
A: IC50 [1]: > 50 µg/mL; IC50 [2]: > 50 µg/mL; IC50 [3]: > 50 µg/mL; IC50 [4]: > 50 µg/mL

Q: Which results are given for `COc1cc2c(cc1OC)C(/C(=N/NC(N)=S)c1ccccc1)N(S(=O)(=O)c1ccc(C)cc1)CC2` (centres undefined)?
A: IC50 [1]: 21.5 µg/mL (≈ 41 µM); IC50 [2]: > 50 µg/mL; IC50 [3]: > 50 µg/mL; IC50 [4]: 8.45 µg/mL (≈ 16.1 µM)

Q: With `COc1cccc2c1C(=O)c1c(O)c3c(c(O)c1C2=O)C[C@@](O)(C(=O)CO)C[C@@H]3O[C@H]1C[C@H](N)[C@H](O)[C@H](C)O1` [DOXORUBICIN] as the compound, how does the IC50 [1] read?
A: 0.23 µg/mL (≈ 0.423 µM)

Q: And the IC50 [2]?
A: 0.35 µg/mL (≈ 0.644 µM)

Q: What about the IC50 [3] of the same compound?
A: 0.38 µg/mL (≈ 0.699 µM)

Q: For `COc1cc([C@@H]2c3cc4c(cc3[C@@H](O[C@@H]3O[C@@H]5CO[C@@H](C)O[C@H]5[C@H](O)[C@H]3O)[C@H]3COC(=O)[C@H]23)OCO4)cc(OC)c1O` [ETOPOSIDE], which IC50 [1] is on record?
A: 16 µg/mL (≈ 27.2 µM)

Q: And the IC50 [4]?
A: 0.024 µg/mL (≈ 0.0408 µM)
